# “Also recorded” adds a separate entry of the source.
# What was measured:
# [1] = tested on: rats; experiment: Forced swim test (FST), latency to become immobile on re-test; type: in vivo, rat; settings: for Latencies to become immobile on the re-test day in the FST: standard antidepressants vs vehicle (0 mg/kg), FIG. 3A; for Latencies to become immobile in the FST: kappa antagonist given ICV (norBNI 5.0 or 20 μg), FIG. 5 and 6A
# Description: Another symptom of clinical depression that can be modeled in rats is despair, a feeling of hopelessness. Symptoms of despair can be induced in rats using the forced swim test (FST), a highly validated model used to study antidepressant treatments.
# The FST is a two day procedure in which rats swim under conditions in which escape is not possible. On the first day, the rats are forced to swim for 15 minutes. The rats initially search for an escape from the water, but eventually adopt a posture of immobility in which they make only the movements necessary to keep their heads above water. Upon re-testing one day later, latencies to become immobile—an indicator of how rapidly the rats “give up” in response to a familiar stressor—are decreased, which is inferred as despair. Standard antidepressants such as desipramine (DMI) and fluoxetine (FLX) extend latencies to become immobile. Drug efficacy in this animal model is predictive of antidepressant efficacy in humans.
# CREB-mediated increases in dynorphin expression within the NAc underlie the decreases in the pleasurable effects of cocaine in the place conditioning paradigm: blockade of brain kappa opioid receptors (on which dynorphin acts) eliminates CREB-induced aversion to cocaine. To determine whether disruption of dynorphin function also eliminates CREB-induced despair in the FST, brain kappa receptors were blocked with either norBNI (nor-binaltorphimine) or GNTI (5′-guanidinyl-17-(cyclopropylmethyl)-6,7-dehydro-4,5α-epoxy-3,14-dihydroxy-6,7-2′,3′-indolomorphinan). […] As with CREB-induced anhedonia, dynorphin is critically involved in CREB-induced despair. Furthermore, they indicate that disruption of CREB function in this region may have antidepressant actions.
# [2] = tested on: rats; experiment: Locomotor activity in automated activity chambers 24 hours after first FST; settings: for Activity: high doses, vs vehicle (0 mg/kg), FIG. 3B; for Locomotor effects / non-specific motor function: after ICV injection, vs vehicle control, FIG. 6B
# Description: To examine the effects of gene transfer and antidepressant therapy on locomotor activity, groups of rats were tested for 1 hour in automated activity chambers 24 hours after the first FST.
# [3] = following systemic administration; cited from earlier work
# [4] = humans; cited from earlier work
# [5] = tested on: rats; experiment: Cocaine place conditioning after HSV gene transfer into the NAc; type: in vivo, rat; settings: cocaine 5.0 mg/kg IP, FIG. 2B
# Description: Place conditioning was performed in a three compartment apparatus. During screening (day 0), rats were placed in the small (12×18×33 cm) central compartment and were allowed to explore the entire apparatus for 30 minutes. The compartments differed in floor texture, wall striping, and lighting. Rats showing no baseline preference were used for the study. Rats received bilateral microinjections (2.0 μl per side) at AP+1.7 mm, Lat±2.3 mm, and DV 6.8 mm. Injections were made over 10 minutes using a 26 gauge needle.
# Behavioral testing began on day 3 after vector injection. On the first conditioning trial of each day, rats received saline (1 ml/kg, i.p.) and were confined to one of the large (24×18×33 cm) side compartments of the apparatus. After three hours, rats received cocaine (1.25 mg/kg, i.p.) and were confined to the other side compartment. Three types of conditioning session were used: a one hour pairing session where the animals were placed immediately into the apparatus immediately after treatment for one hour; 15 minute pairing session where the animals were placed immediately into the apparatus immediately after treatment for 15 minutes; or a delayed pairing session where the animals were placed in the apparatus for one hour following a 15 minute delay from drug exposure. […]
SMILES,Latencies to become immobile on the re-test day in the FST [1],Activity [2],Latencies to become immobile in the FST [1],Penetration of the blood-brain-barrier [3],Locomotor effects / non-specific motor function [2],other results
"CNCCCN1c2ccccc2CCc2ccccc21 [DMI, desipramine]",increased,decreased by high doses,,,,
"CNCCC(Oc1ccc(C(F)(F)F)cc1)c1ccccc1 (stereo not drawn) [FLX, fluoxetine]",increased,decreased by high doses,,,,
"NC(N)=Nc1ccc2[nH]c3c(c2c1)C[C@@]1(O)[C@H]2Cc4ccc(O)c5c4[C@@]1(CCN2CC1CC1)[C@H]3O5 [GNTI, 5′-guanidinyl-17-(cyclopropylmethyl)-6,7-dehydro-4,5α-epoxy-3,14-dihydroxy-6,7-2′,3′-indolomorphinan]",,,significantly longer latencies than the control group; also recorded: dose-dependently increased latencies to become immobile,neither compound can penetrate the blood-brain-barrier,Neither compound affected non-specific motor function,"Potency relative to norBNI for increasing latencies to become immobile in the FST ([1]; ICV, FIG. 6A): roughly equipotent to norBNI"
CN1Cc2c(N)cccc2C(c2ccccc2)C1 (stereo not drawn) [Nomifensine],,,,,,Adverse reactions [4]: caused lethal allergic reactions in some people; Antidepressant efficacy in the clinic [4]: clinically effective antidepressant
COC(=O)[C@H]1[C@@H](OC(=O)c2ccccc2)C[C@@H]2CC[C@H]1N2C [cocaine],,,,,,"Place preference, time spent in cocaine-associated environments ([5]; HSV-CREB group): no effect; Place preference, time spent in cocaine-associated environments ([5]; HSV-mCREB and vehicle groups): ~600 s"
"Oc1ccc2c3c1O[C@H]1c4[nH]c5c(c4C[C@@]4(O)[C@@H](C2)N(CC2CC2)CC[C@]314)C[C@@]1(O)[C@H]2Cc3ccc(O)c4c3[C@@]1(CCN2CC1CC1)[C@H]5O4 [norBNI, nor-binaltorphimine]",,,dose-dependently increased latencies to become immobile; also recorded: significantly longer latencies than the control group,neither compound can penetrate the blood-brain-barrier,Neither compound affected non-specific motor function,

# — US6528518B2, “Treatment of depression with kappa receptor antagonists” (The McLean Hospital Corporation, priority 2000, dated 2003)
